Earlier results, collected in patent publication US20030077264A1, “Antimicrobial blood treatment using allicin and related compounds” (priority 2001, published 2003).

Columns and labels:
Helicobacter pylori = conditions: in medium
[1] = buffer

With “thio-2-propene-1-sulfinic acid S-allyl ester [Allicin]” as the substance, how does the minimum inhibitory concentration (Helicobacter pylori) read?
Its minimum inhibitory concentration is 4.0 µg/mL.

And the half-life [1]?
The half-life was 30 to 40 days.
